One series concerns HUVEC cells. Put plainly: Cytotoxicity on HUVECs, trypan blue exclusion assay. The format is cell-based, human. The following applies: 40 μM, 24 h, % of control, p > 0.05 vs control. On the procedure: The biocompatibility of flavones (1 and 2)[30] alongside their ruthenium(II) metal complexes (1Ru and 2Ru) with HUVEC cells was established using the trypan blue exclusion assay. A concentration four times higher (i.e. 40 μM) than the highest concentration used for the tube formation antiangiogenic evaluation study (i.e. 10 μM) was selected for this cytotoxic assay.
Cytotoxic activity of treatments on HUVECs using trypan blue exclusion assay.[55] HUVECs were seeded in 96 well plates at 1 × 10^5 cells per mL and cultured for 24 h. Cells were then treated with either luteolin, the synthesised derivatives at 40 μM or culture medium (control) for 24 h. After 24 h, solutions were removed and cells washed with 100 μL PBS followed by the addition of 50 μL trypsin–EDTA and incubation for 5 min to detach the cells. 50 μL of EGM-2 media was added to the wells. 50 μL aliquots of the cell suspension were mixed with equal volume of trypan blue (TB) 0.2% v/v (prepared from 0.4% TB diluted with PBS) then the cells were counted using a haemocytometer. Number of viable and dead cells were counted manually and % cell viability of each treatment was expressed as % of control using the equation:% Cell Viability = (Cell viability in treatment/Cell viability in control) × 100where cell viability was calculated as follows:Cell Viability = Number of viable cells/Total number of cells(viable and dead).

Series [1] concerns MCF-7. Put plainly: Wound healing (migration) 24 h scratch assay. Format: cell-based, human. On the procedure:
(§1) Malignant cell migration is essential for tumour invasion and metastasis.[1] Thus, the ability of the synthetic flavones (1 and 2) and their Ru(II) metal complexes (1Ru and 2Ru) to inhibit the migration of breast cancer cells (MCF-7 and MDA-MB-231) was assessed by an in vitro 24 h scratch assay. Low, sub-cytotoxic concentrations of 1, 10 and 20 μM were used in this evaluation.
(§2) MCF-7 or MDA-MB-231 cells were seeded in 12-well plates at 2 × 10^5 or 1 × 10^5 cells per mL, respectively, and cultured until 70–80% confluency. Afterwards, they were serum-starved (0% serum) for 24 h to inactivate the cell proliferation. A scratch was performed on the cell monolayers using a 200 μL pipette tip. Cells were then washed twice with PBS and treated with complete medium and one of the synthesized derivatives at 1, 10 or 20 μM. […] Images of the scratches were taken immediately after performing the scratch (t = 0 h) and at 24 h (t = 24 h). The area not covered by the cells was quantified using ImageJ software. % of wound closure was calculated using the following equation:100 × ((Area of scratch at t0 − Area of scratch at t24)/Area of scratch at t0)

The subject of series [2] is MDA-MB-231. Nature of the series: Wound healing (migration) 24 h scratch assay. The format is cell-based, human. The following applies: for rise in compound 2's migration inhibition activity upon metal coordination: p < 0.05. On the procedure:
as §1, §2

The test system of series [3] is MCF-7. Nature of the series: Cell viability, 72 h MTT assay. Format: cell-based, human. The settings on record: MCF-7, 72 h MTT, mean ± SEM, n = 3. As for the experimental part: (§3) The unique chemical features and coordination geometries of metal ions can add several additional binding interactions that can potentially enhance their anticancer properties for example by allowing intercalation and exploitation of their redox potential.[24] […] In that context, coordination of derivative (2) with a Ru(II) metal ligand is a promising approach to further improve its antiproliferative activity.
(§4) MCF-7 and MDA-MB-231 cells were seeded at a density of 4 × 10^4 and 2 × 10^4 cells per mL, respectively, into 96 well plates and incubated to allow the attachment for 24 h. After 24 h, the cells were treated with one of the synthesised derivatives at range of concentrations (0–100 μM) for 67 h. After 67 h, 20 μL of MTT (5 mg mL^−1) solution in PBS was added to each well and the cells were incubated for 5 h. The purple crystals formed were dissolved in 100 μL of DMSO and the plates were read at 560 nm using a SPECTRA max UV spectrometer (Bio-Rad). The data represented are the mean of the three individual experiments.
For orientation: Formazan colour is commonly taken as a measure of viable cells.

The subject of series [4] is MDA-MB-231. Nature of the series: Cell viability, 72 h MTT assay. The following applies: MDA-MB-231, 72 h MTT, mean ± SEM, n = 3. The format is cell-based, human. As for the experimental part:
as §3, §4

Series [5] can be described thus: Temperature dependent UV-vis stability of the complexes. Format: physicochemical. More on the design: key to Δλ260: change in absorbance at 260 nm (absorbance units). The following applies: for λ260 (absorbance at 260 nm) / UV-vis stability profile: 0.1% DMSO/ddH2O; for UV-vis stability profile: temperature increments 20-80 °C, 6 h time interval. On the procedure: Wavelength (nm) Wavelength (nm)
Figure 3. Temperature dependant UV-VIS spectra of (A) 1Ru and (B) 2Ru in 0.1%DMSO/ddH2O solution recorded
over a 6 h time interval.
Table 1. λ260a and Δ λ260b of complexes 1Ru and 2Ru at 20 °C – 80 °C

As a reminder, the IC50 is the point on the concentration scale where inhibition reaches its midpoint.

Consider `Cc1ccc(C(C)C)cc1.O=c1cc(-c2ccc(Cl)cc2)oc2cc(O)cc([O-])c12.[Cl-].[Ru+2]` [1Ru, chlorido [(5-oxo-κO)-7-hydroxy-2-(4′-chlorophenyl)-4H-chromen-4-onato-κO] (η^6-p-cymene)ruthenium(II)], for which, in the series with HUVEC cells, the “Cell viability of HUVECs” value is reported as ~100%. Also, the migration inhibition was determined as 50% in the series on MCF-7 [1] (MCF-7, 1 μM); 42% in the series on MCF-7 [1] (MCF-7, 10 μM); 41% in the series with MCF-7 [1] (MCF-7, 20 μM). In addition, the “effect on the migration” value in the series with MDA-MB-231 [2] (MDA-MB-231, 1, 10, 20 μM, 24 h) was “neither showed any effect”. The IC50 with MCF-7 [3] is 66.2 ± 5 µM; with MDA-MB-231 [4] it was > 100 µM. Further, the Δλ260 is 0 in series [5] (20 °C (baseline)), 0.00072 in series [5] (40 °C minus 20 °C), 0.00174 in series [5] (60 °C minus 20 °C) and 0.00388 in series [5] (80 °C minus 20 °C). For the same molecule, the “λ260 (absorbance at 260 nm)” value in series [5] (20 °C) came out at 0.0435; in series [5] (40 °C) it was 0.04422; in series [5] (60 °C) it was 0.04525; in series [5] (80 °C) it was 0.04738. In series [5], the UV-vis stability profile result was “sufficient stability”.

On to `Cc1ccc(C(C)C)cc1.[Cl-].[O-]c1cc(O)cc2oc(-c3ccc(Cl)cc3)cc(=S)c12.[Ru+2]` [2Ru, chlorido [(5-oxo-κO)-7-hydroxy-2-(4′-chlorophenyl)-4H-chromen-4-thionato-κO] (η^6-p-cymene)ruthenium(II)], for which the “Cell viability of HUVECs” value with HUVEC cells is ~100%. The migration inhibition with MCF-7 [1] (MCF-7, 1 μM) stood at 52%; in the series with MCF-7 [1] (MCF-7, 10 μM), 49%; in the series with MCF-7 [1] (MCF-7, 20 μM), 55%; in the series on MDA-MB-231 [2] (MDA-MB-231, 1 μM, 24 h), 47%; in the series on MDA-MB-231 [2] (MDA-MB-231, 10 μM, 24 h), 44%; in the series on MDA-MB-231 [2] (MDA-MB-231, 20 μM, 24 h), 36%. The “rise in compound 2's migration inhibition activity upon metal coordination” value amounted to 4% with MDA-MB-231 [2] (MDA-MB-231, 1 μM) and 7% with MDA-MB-231 [2] (MDA-MB-231, 20 μM). The IC50 with MCF-7 [3] and in the series on MDA-MB-231 [4] was > 100 µM throughout. The Δλ260 amounted to 0 in series [5] (20 °C (baseline)), 0.0013 in series [5] (40 °C minus 20 °C), 0.0021 in series [5] (60 °C minus 20 °C) and 0.0028 in series [5] (80 °C minus 20 °C). Also, the “λ260 (absorbance at 260 nm)” value in series [5] (20 °C) is 0.03108; in series [5] (40 °C), 0.02973; in series [5] (60 °C), 0.02902; in series [5] (80 °C) it was 0.02832. The UV-vis stability profile entry in series [5] is “sufficient stability”.

Source of the values: paper PMC9945865, “Anticancer evaluation of new organometallic ruthenium(II) flavone complexes” (RSC Medicinal Chemistry, 2022).
